From the NIST ThermoML archive (doi:10.1016/j.tca.2008.12.007)
Several values for one entry are separate records, joined by “and”; a condition that tells them apart may be missing. Identical values can stand only once.

Assay: xn = mol fraction of the nth substance listed
Conditions: 101 kPa, Liquid, Vibrating tube method

C1CCCNCC1 [azacycloheptane] + O
mass density
Conditions | 283.15 K | 288.15 K | 293.15 K | 298.15 K | 303.15 K | 308.15 K | 313.15 K
x2 = 0.0199 | 891.47 kg/m3 | 887.05 kg/m3 | 882.62 kg/m3 | 878.18 kg/m3 | 873.74 kg/m3 | 869.29 kg/m3 | 864.83 kg/m3
x2 = 0.0395 | 892.56 kg/m3 | 888.13 kg/m3 | 883.7 kg/m3 | 879.25 kg/m3 | 874.8 kg/m3 | 870.34 kg/m3 | 865.87 kg/m3
x2 = 0.0821 | 895.27 kg/m3 | 890.84 kg/m3 | 886.39 kg/m3 | 881.94 kg/m3 | 877.47 kg/m3 | 872.99 kg/m3 | 868.49 kg/m3
x2 = 0.1198 | 897.59 kg/m3 | 893.16 kg/m3 | 888.7 kg/m3 | 884.23 kg/m3 | 879.75 kg/m3 | 875.26 kg/m3 | 870.75 kg/m3
x2 = 0.1594 | 900.05 kg/m3 | 895.61 kg/m3 | 891.15 kg/m3 | 886.67 kg/m3 | 882.19 kg/m3 | 877.68 kg/m3 | 873.16 kg/m3
x2 = 0.1994 | 902.85 kg/m3 | 898.4 kg/m3 | 893.94 kg/m3 | 889.46 kg/m3 | 884.96 kg/m3 | 880.45 kg/m3 | 875.92 kg/m3
x2 = 0.2498 | 906.32 kg/m3 | 901.88 kg/m3 | 897.41 kg/m3 | 892.92 kg/m3 | 888.42 kg/m3 | 883.9 kg/m3 | 879.35 kg/m3
x2 = 0.3 | 909.81 kg/m3 | 905.38 kg/m3 | 900.91 kg/m3 | 896.42 kg/m3 | 891.91 kg/m3 | 887.38 kg/m3 | –
x2 = 0.3499 | 913.73 kg/m3 | 909.3 kg/m3 | 904.84 kg/m3 | 900.36 kg/m3 | 895.85 kg/m3 | 891.32 kg/m3 | –
x2 = 0.4 | 917.67 kg/m3 | 913.25 kg/m3 | 908.79 kg/m3 | 904.32 kg/m3 | 899.81 kg/m3 | 895.28 kg/m3 | –
x2 = 0.4529 | 922.26 kg/m3 | 917.86 kg/m3 | 913.42 kg/m3 | 908.96 kg/m3 | 904.46 kg/m3 | 899.94 kg/m3 | –
x2 = 0.5008 | 926.61 kg/m3 | 922.24 kg/m3 | 917.83 kg/m3 | 913.38 kg/m3 | 908.91 kg/m3 | 904.4 kg/m3 | –
x2 = 0.5041 | 926.61 kg/m3 | 922.23 kg/m3 | 917.82 kg/m3 | 913.38 kg/m3 | 908.91 kg/m3 | 904.4 kg/m3 | –
x2 = 0.5508 | 931.05 kg/m3 | 926.72 kg/m3 | 922.34 kg/m3 | 917.93 kg/m3 | 913.48 kg/m3 | 909 kg/m3 | –
x2 = 0.5992 | 935.7 kg/m3 | 931.42 kg/m3 | 927.09 kg/m3 | 922.72 kg/m3 | 918.31 kg/m3 | 913.86 kg/m3 | –
x2 = 0.65 | 941.01 kg/m3 | 936.79 kg/m3 | 932.53 kg/m3 | 928.22 kg/m3 | 923.88 kg/m3 | 919.49 kg/m3 | –
x2 = 0.699 | 946.42 kg/m3 | 942.29 kg/m3 | 938.12 kg/m3 | 933.9 kg/m3 | 929.63 kg/m3 | 925.32 kg/m3 | –
x2 = 0.7496 | 952.51 kg/m3 | 948.5 kg/m3 | 944.46 kg/m3 | 940.36 kg/m3 | 936.22 kg/m3 | 932.02 kg/m3 | –
x2 = 0.7994 | 959.33 kg/m3 | 955.51 kg/m3 | 951.64 kg/m3 | 947.71 kg/m3 | 943.73 kg/m3 | 939.69 kg/m3 | –
x2 = 0.8398 | 965.5 kg/m3 | 961.88 kg/m3 | 958.2 kg/m3 | 954.47 kg/m3 | 950.68 kg/m3 | 946.83 kg/m3 | –
x2 = 0.8799 | 972.62 kg/m3 | 969.3 kg/m3 | 965.9 kg/m3 | 962.45 kg/m3 | 958.91 kg/m3 | 955.31 kg/m3 | –
x2 = 0.92 | 981.18 kg/m3 | 978.28 kg/m3 | 975.3 kg/m3 | 972.24 kg/m3 | 969.1 kg/m3 | 965.86 kg/m3 | –
x2 = 0.9597 | – | – | – | 984.66 kg/m3 and 984.68 kg/m3 | – | – | –
x2 = 0.9599 | 991.53 kg/m3 | 989.32 kg/m3 | 986.99 kg/m3 | 984.54 kg/m3 | 981.98 kg/m3 | 979.29 kg/m3 | –
x2 = 0.96 | 991.6 kg/m3 | 989.39 kg/m3 | 987.06 kg/m3 | 984.61 kg/m3 | 982.04 kg/m3 | 979.35 kg/m3 | –
x2 = 0.9699 | 994.44 kg/m3 | 992.49 kg/m3 | 990.4 kg/m3 | 988.16 kg/m3 | 985.8 kg/m3 | 983.3 kg/m3 | –
x2 = 0.9798 | – | – | – | 991.9 kg/m3 | – | – | –
x2 = 0.98 | 997.1 kg/m3 | 995.56 kg/m3 | 993.8 kg/m3 | 991.86 kg/m3 | 989.75 kg/m3 | 987.48 kg/m3 | –
x2 = 0.9851 | – | – | – | 993.77 kg/m3 | – | – | –
x2 = 0.9882 | – | – | – | 994.59 kg/m3 | – | – | –
x2 = 0.9899 | – | – | – | 994.98 kg/m3 | – | – | –
x2 = 0.9921 | – | – | – | 995.43 kg/m3 | – | – | –
x2 = 0.994 | – | – | – | 995.81 kg/m3 | – | – | –
